From patent US11230526B1, “Cylcoalkenyl derivatives useful as agonists of the GPR120 and/or GPR40 receptors” (Janssen Pharmaceutica NV, priority 2018, dated 2022)

What was measured:
[1] = molecular target: T1, Human GPR120 short form (Homo sapiens, UniProt Q5NUL3); assay: Human GPR120 calcium flux assay, Procedure Calcium B (4200 cells/well); assay type: cell-based
T1 construct: expressed in transfected cells
T1 sequence (Q5NUL3 1-361): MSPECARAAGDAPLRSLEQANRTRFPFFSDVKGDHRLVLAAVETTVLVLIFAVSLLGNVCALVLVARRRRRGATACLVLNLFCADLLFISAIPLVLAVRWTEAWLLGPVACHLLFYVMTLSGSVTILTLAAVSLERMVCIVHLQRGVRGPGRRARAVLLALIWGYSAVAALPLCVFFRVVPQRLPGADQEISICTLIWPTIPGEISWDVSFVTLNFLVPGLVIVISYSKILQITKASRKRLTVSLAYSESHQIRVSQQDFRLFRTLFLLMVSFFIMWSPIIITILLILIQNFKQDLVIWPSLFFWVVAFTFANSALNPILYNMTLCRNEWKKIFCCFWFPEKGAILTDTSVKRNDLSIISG
Procedure, shortened: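 Agonist EC50 came from a four-parameter fit of RFU (Fmax−Fmin) read over 300 s on FLIPR. Cells were HEK293 stably transfected with human GPR120 (NM_001195755.1) at 4200 per well, serum-starved 1 h and loaded with Fluo-4 NW dye with probenecid before ligand addition.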

[2] = molecular target: T2, human GPR40 (Homo sapiens, UniProt O14842); assay: GPR40 calcium flux assay, human GPR40; assay type: cell-based; details: HEK293 cells stably expressing GPR40; table does not say human or rat
T2 construct: expressed in transfected cells
Procedure, shortened: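 Cells preincubated 1 h at 37° C. in HBSS, 20 mM HEPES, 0.1% BSA, then Fluo 8 calcium dye 30 min at 37° C. and 15 min at room temperature.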

T2 sequence (O14842 whole entry): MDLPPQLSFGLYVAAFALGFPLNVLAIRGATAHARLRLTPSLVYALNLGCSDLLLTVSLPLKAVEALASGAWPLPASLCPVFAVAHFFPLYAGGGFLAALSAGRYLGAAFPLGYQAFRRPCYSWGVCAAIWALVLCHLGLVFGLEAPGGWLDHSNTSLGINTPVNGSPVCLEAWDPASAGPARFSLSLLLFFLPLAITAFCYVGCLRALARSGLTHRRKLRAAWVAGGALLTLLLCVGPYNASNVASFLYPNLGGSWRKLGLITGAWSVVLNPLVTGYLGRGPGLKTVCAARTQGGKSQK

CC1CCC(COc2ccc(CCC(=O)O)c(C(F)(F)F)c2)=C1c1ccc(Cl)cc1 (stereo not shown) [Compound 316, 3-[4-[[2-(4-chlorophenyl)-3-methyl-cyclopenten-1-yl]methoxy]-2-(trifluoromethyl)phenyl]Propanoic Acid]
EC50 [1]: 2430 nM | EC50 [2]: 164 nM

Cc1cc(OCC2=C(c3ccc(Cl)cc3)C(C)CC2)c(F)cc1CCC(=O)O (stereo not shown) [Compound 317, 3-[4-[[2-(4-chlorophenyl)-3-methyl-cyclopenten-1-yl]methoxy]-5-fluoro-2-methyl-phenyl]Propanoic Acid]
EC50 [1]: 866 nM | EC50 [2]: 746 nM

O=C(O)CCc1ccc(OCC2=C(Cc3ccccc3)CCC2)cc1C(F)(F)F [Compound 319, 3-[4-[(2-benzylcyclopenten-1-yl)methoxy]-2-(trifluoromethyl)phenyl]Propanoic Acid]
EC50 [1]: 623 nM | EC50 [2]: 55 nM

CC1CCC(COc2ccc(CCC(=O)O)c(Cl)c2)=C1c1ccccc1 (stereo not shown) [Compound 320, 3-[2-chloro-4-[(3-methyl-2-phenyl-cyclopenten-1-yl)methoxy]phenyl]Propanoic Acid]
EC50 [1]: 998 nM | EC50 [2]: 543 nM

CC1CCC(COc2ccc(CCC(=O)O)cc2)=C1c1ccccc1 (stereo not shown) [Compound 321, 3-[4-[(3-methyl-2-phenyl-cyclopenten-1-yl)methoxy]phenyl]Propanoic Acid]
EC50 [1]: 733 nM | EC50 [2]: 2640 nM

O=C(O)CCc1ccc(OCC2=C(Cc3ccccc3)CCC2)cc1 [Compound 322, 3-[4-[(2-benzylcyclopenten-1-yl)methoxy]phenyl]Propanoic Acid]
EC50 [1]: 1140 nM | EC50 [2]: 328 nM

Cc1cc(OCC2=C(c3ccccc3)C(C)CC2)c(F)cc1CCC(=O)O (stereo not shown) [Compound 323, 3-[5-fluoro-2-methyl-4-[(3-methyl-2-phenyl-cyclopenten-1-yl)methoxy]phenyl]Propanoic Acid]
EC50 [1]: 1070 nM | EC50 [2]: 2230 nM

Cc1cc(OCC2=C(c3ccc(OC(F)(F)F)cc3)CCC2)c(F)cc1CCC(=O)O [Compound 325, 3-[5-fluoro-2-methyl-4-[[2-[4-(trifluoromethoxy)phenyl]cyclopenten-1-yl]methoxy]phenyl]Propanoic Acid]
EC50 [1]: > 5000 nM | EC50 [2]: 2770 nM

Cc1ccc(C2=C(COc3cc(C)c(CCC(=O)O)cc3F)CCC2)cc1 [Compound 326, 3-[5-fluoro-2-methyl-4-[[2-(p-tolyl)cyclopenten-1-yl]methoxy]phenyl]Propanoic Acid]
EC50 [1]: 157 nM | EC50 [2]: 4780 nM

CC1CCC(COc2ccc(CCC(=O)O)c(Cl)c2)=C1c1ccc(Cl)cc1 (stereo not shown) [Compound 327, 3-[2-chloro-4-[[2-(4-chlorophenyl)-3-methyl-cyclopenten-1-yl]methoxy]phenyl]Propanoic Acid]
EC50 [1]: 983 nM | EC50 [2]: 205 nM

CC1CCC(COc2ccc(CCC(=O)O)cc2)=C1c1ccc(Cl)cc1 (stereo not shown) [Compound 328, 3-[4-[[2-(4-chlorophenyl)-3-methyl-cyclopenten-1-yl]methoxy]phenyl]Propanoic Acid]
EC50 [1]: 307 nM | EC50 [2]: 639 nM

O=C(O)CCc1ccc(OCC2=C(Cc3ccccc3)CCC2)cc1Cl [Compound 329, 3-[4-[(2-benzylcyclopenten-1-yl)methoxy]-2-chloro-phenyl]Propanoic Acid]
EC50 [1]: 1600 nM | EC50 [2]: 101 nM

O=C(O)CCc1cc(F)c(OCC2=C(Cc3ccccc3)CCC2)c(F)c1 [Compound 330, 3-[4-[(2-benzylcyclopenten-1-yl)methoxy]-3,5-difluoro-phenyl]Propanoic Acid]
EC50 [1]: 492 nM | EC50 [2]: > 5000 nM

Cc1ccc(C2=C(COc3ccc(CCC(=O)O)c(C(F)(F)F)c3)CCC2)c(C(C)C)c1 [Compound 331, 3-[4-[[2-(2-isopropyl-4-methyl-phenyl)cyclopenten-1-yl]methoxy]-2-(trifluoromethyl)phenyl]Propanoic Acid]
EC50 [1]: > 5000 nM | EC50 [2]: 3340 nM

CC1CCC(c2ccc(Cl)cc2)=C1COc1ccc(CCC(=O)O)cc1 (stereo not shown) [Compound 332, 3-[4-[[2-(4-chlorophenyl)-5-methyl-cyclopenten-1-yl]methoxy]phenyl]Propanoic Acid]
EC50 [1]: 191 nM | EC50 [2]: 1300 nM

Cc1cc(OCC2=C(c3ccc(Cl)cc3)CCC2C)c(F)cc1CCC(=O)O (stereo not shown) [Compound 333, 3-[4-[[2-(4-chlorophenyl)-5-methyl-cyclopenten-1-yl]methoxy]-5-fluoro-2-methyl-phenyl]Propanoic Acid]
EC50 [1]: 427 nM | EC50 [2]: 1010 nM

CC1CCC(c2ccccc2)=C1COc1ccc(CCC(=O)O)c(Cl)c1 (stereo not shown) [Compound 334, 3-[2-chloro-4-[(5-methyl-2-phenyl-cyclopenten-1-yl)methoxy]phenyl]Propanoic Acid]
EC50 [1]: 1730 nM | EC50 [2]: 2130 nM

CC1CCC(c2ccc(Cl)cc2)=C1COc1ccc(CCC(=O)O)c(C(F)(F)F)c1 (stereo not shown) [Compound 336, 3-[4-[[2-(4-chlorophenyl)-5-methyl-cyclopenten-1-yl]methoxy]-2-(trifluoromethyl)phenyl]Propanoic Acid]
EC50 [1]: 562 nM | EC50 [2]: 428 nM

CC1CCC(c2ccc(Cl)cc2)=C1COc1ccc(CCC(=O)O)c(Cl)c1 (stereo not shown) [Compound 337, 3-[2-chloro-4-[[2-(4-chlorophenyl)-5-methyl-cyclopenten-1-yl]methoxy]phenyl]Propanoic Acid]
EC50 [1]: 336 nM | EC50 [2]: 519 nM

Cc1cc(OCC2=C(c3ccccc3)CCC2C)c(F)cc1CCC(=O)O (stereo not shown) [Compound 338, 3-[5-fluoro-2-methyl-4-[(5-methyl-2-phenyl-cyclopenten-1-yl)methoxy]phenyl]Propanoic Acid]
EC50 [1]: 725 nM | EC50 [2]: 2860 nM

Cc1cc(OCC2=C(c3cc(Cl)ccc3F)CCC2)c(F)cc1CCC(=O)O [Compound 339, 3-[4-[[2-(5-chloro-2-fluoro-phenyl)cyclopenten-1-yl]methoxy]-5-fluoro-2-methyl-phenyl]Propanoic Acid]
EC50 [1]: 803 nM | EC50 [2]: 356 nM

Cc1ccc(F)c(C2=C(COc3cc(C)c(CCC(=O)O)cc3F)CCC2)c1 [Compound 340, 3-[5-fluoro-4-[[2-(2-fluoro-5-methyl-phenyl)cyclopenten-1-yl]methoxy]-2-methyl-phenyl]Propanoic Acid]
EC50 [1]: 743 nM | EC50 [2]: 944 nM

Cc1ccc(F)c(C2=C(COc3ccc(CCC(=O)O)c(C(F)(F)F)c3)CCC2)c1 [Compound 341, 3-[4-[[2-(2-fluoro-5-methyl-phenyl)cyclopenten-1-yl]methoxy]-2-(trifluoromethyl)phenyl]Propanoic Acid]
EC50 [1]: 447 nM | EC50 [2]: 281 nM

O=C(O)CCc1ccc(OCC2=C(c3cc(Cl)ccc3F)CCC2)cc1Cl [Compound 342, 3-[2-chloro-4-[[2-(5-chloro-2-fluoro-phenyl)cyclopenten-1-yl]methoxy]phenyl]Propanoic Acid]
EC50 [1]: 515 nM | EC50 [2]: 322 nM

Cc1ccc(F)c(C2=C(COc3ccc(CCC(=O)O)c(Cl)c3)CCC2)c1 [Compound 343, 3-[2-chloro-4-[[2-(2-fluoro-5-methyl-phenyl)cyclopenten-1-yl]methoxy]phenyl]Propanoic Acid]
EC50 [1]: 1380 nM | EC50 [2]: 1100 nM

O=C(O)CCc1ccc(OCC2=C(c3cc(Cl)ccc3F)CCC2)cc1C(F)(F)F [Compound 344, 3-[4-[[2-(5-chloro-2-fluoro-phenyl)cyclopenten-1-yl]methoxy]-2-(trifluoromethyl)phenyl]Propanoic Acid]
EC50 [1]: 520 nM | EC50 [2]: 137 nM
